Reference: PubChem BioAssay AID1963829 (Molecular Pharmacology Branch, DTP, NCI, 2024)

Test system: 935938-334-R-J1-PDC complex spheroid viability
Assay: Anticancer human tumor 935938-334-R-J1-PDC patient-derived small intestine adenocarcinoma cell line growth inhibition [POLQ]
Conditions: for IC50: curve of first compound; for viability, T/C: stronger effect = lower value
Outline: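 Three-cell-type spheroids modelling solid tumor plus stroma served as the readout system; POL inhibitors were tested individually and in combination, concentration ranges set by clinical Cmax where known.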

[1] = second compound 0.0316 µM, first compound 0.0316 µM
[2] = second compound 0.0316 µM, first compound 0.1 µM
[3] = second compound 0.0316 µM, first compound 0.316 µM
[4] = second compound 0.0316 µM, first compound 1 µM
[5] = second compound 0.0316 µM, first compound 3.16 µM
[6] = second compound 0.0316 µM, first compound 10 µM
[7] = second compound 0.1 µM, first compound 0.0316 µM
[8] = second compound 0.1 µM, first compound 0.1 µM
[9] = second compound 0.1 µM, first compound 0.316 µM
[10] = second compound 0.1 µM, first compound 1 µM
[11] = second compound 0.1 µM, first compound 3.16 µM
[12] = second compound 0.1 µM, first compound 10 µM
[13] = second compound 0.316 µM, first compound 0.0316 µM
[14] = second compound 0.316 µM, first compound 0.1 µM
[15] = second compound 0.316 µM, first compound 0.316 µM
[16] = second compound 0.316 µM, first compound 1 µM
[17] = second compound 0.316 µM, first compound 3.16 µM
[18] = second compound 0.316 µM, first compound 10 µM
[19] = second compound 1 µM, first compound 0.0316 µM
[20] = second compound 1 µM, first compound 0.1 µM
[21] = second compound 1 µM, first compound 0.316 µM
[22] = second compound 1 µM, first compound 1 µM
[23] = second compound 1 µM, first compound 3.16 µM
[24] = second compound 1 µM, first compound 10 µM
[25] = second compound 3.16 µM, first compound 0.0316 µM
[26] = second compound 3.16 µM, first compound 0.1 µM
[27] = second compound 3.16 µM, first compound 0.316 µM
[28] = second compound 3.16 µM, first compound 1 µM
[29] = second compound 3.16 µM, first compound 3.16 µM
[30] = second compound 3.16 µM, first compound 10 µM
[31] = second compound 10 µM, first compound 0.0316 µM
[32] = second compound 10 µM, first compound 0.1 µM
[33] = second compound 10 µM, first compound 0.316 µM
[34] = second compound 10 µM, first compound 1 µM
[35] = second compound 10 µM, first compound 3.16 µM
[36] = second compound 10 µM, first compound 10 µM
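Further: spheroids exposed to drugs for seven days before viability read.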
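Wherever viability, T/C is given: 100% = DMSO vehicle control wells.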

CC1COCCN1c1cc(C2(S(C)(=N)=O)CC2)nc(-c2ccnc3[nH]ccc23)n1 (stereo not drawn) + Nc1ccc(C#CCN(C(=O)Cc2ncc(C(F)(F)F)cc2C(F)(F)F)c2ccc(F)cc2)nn1
IC50 (second compound 0.0316 µM): 3830 nM
IC50 (second compound 0.1 µM): 2330 nM
IC50 (second compound 0.316 µM): 3220 nM
IC50 (second compound 1 µM): 2480 nM
IC50 (second compound 3.16 µM): 1900 nM
IC50 (second compound 10 µM): 1810 nM
viability, T/C [1]: 105%
viability, T/C [2]: 83.7%
viability, T/C [3]: 97.7%
viability, T/C [4]: 76.1%
viability, T/C [5]: 58.7%
viability, T/C [6]: 15.2%
viability, T/C [7]: 104%
viability, T/C [8]: 117%
viability, T/C [9]: 91.8%
viability, T/C [10]: 91%
viability, T/C [11]: 35%
viability, T/C [12]: 16%
viability, T/C [13]: 83.9%
viability, T/C [14]: 96.8%
viability, T/C [15]: 96.7%
viability, T/C [16]: 82.8%
viability, T/C [17]: 50.9%
viability, T/C [18]: 14.2%
viability, T/C [19]: 118%
viability, T/C [20]: 98.6%
viability, T/C [21]: 94.2%
viability, T/C [22]: 78.2%
viability, T/C [23]: 38.8%
viability, T/C [24]: 22.6%
viability, T/C [25]: 93.5%
viability, T/C [26]: 93.2%
viability, T/C [27]: 108%
viability, T/C [28]: 70.5%
viability, T/C [29]: 34.1%
viability, T/C [30]: 17.9%
viability, T/C [31]: 106%
viability, T/C [32]: 111%
viability, T/C [33]: 137%
viability, T/C [34]: 75.3%
viability, T/C [35]: 36.8%
viability, T/C [36]: 16%

CCc1cc2c(N3CCc4c(cc(Cn5ccnc5)cc4-c4cn(C)nc4C(F)(F)F)C3=O)cc(C)nc2c(OC)n1 + Cc1cccc(N(C)C(=O)C2C(O)CCN2c2nc(C)cc(C(F)(F)F)c2C#N)c1
IC50 (second compound 0.0316 µM): > 10000 nM
IC50 (second compound 0.1 µM): > 10000 nM
IC50 (second compound 0.316 µM): > 10000 nM
IC50 (second compound 1 µM): > 10000 nM
IC50 (second compound 3.16 µM): > 10000 nM
IC50 (second compound 10 µM): > 10000 nM
viability, T/C [1]: 77.4%
viability, T/C [2]: 59%
viability, T/C [3]: 74%
viability, T/C [4]: 58.9%
viability, T/C [5]: 69.4%
viability, T/C [6]: 56.7%
viability, T/C [7]: 61.9%
viability, T/C [8]: 87%
viability, T/C [9]: 62.8%
viability, T/C [10]: 56.1%
viability, T/C [11]: 72%
viability, T/C [12]: 63%
viability, T/C [13]: 74.7%
viability, T/C [14]: 62.6%
viability, T/C [15]: 62.4%
viability, T/C [16]: 54.8%
viability, T/C [17]: 65.5%
viability, T/C [18]: 51.6%
viability, T/C [19]: 91.2%
viability, T/C [20]: 61.9%
viability, T/C [21]: 55.6%
viability, T/C [22]: 60.9%
viability, T/C [23]: 51.7%
viability, T/C [24]: 53.2%
viability, T/C [25]: 78.3%
viability, T/C [26]: 78.3%
viability, T/C [27]: 71.6%
viability, T/C [28]: 70.7%
viability, T/C [29]: 57.1%
viability, T/C [30]: 54.2%
viability, T/C [31]: 72.7%
viability, T/C [32]: 65.8%
viability, T/C [33]: 58.9%
viability, T/C [34]: 49.5%
viability, T/C [35]: 60.3%
viability, T/C [36]: 50.8%

COc1cccc2c1C(=O)c1c(O)c3c(c(O)c1C2=O)CC(O)(C(=O)CO)CC3OC1CC(N)C(O)C(C)O1 (stereo not drawn) + COC1C(OC(N)=O)C(O)C(Oc2ccc3c(O)c(NC(=O)c4ccc(O)c(CC=C(C)C)c4)c(=O)oc3c2C)OC1(C)C
IC50 (second compound 0.0316 µM): 217 nM
IC50 (second compound 0.1 µM): 221 nM
IC50 (second compound 0.316 µM): 190 nM
IC50 (second compound 1 µM): 228 nM
IC50 (second compound 3.16 µM): 211 nM
IC50 (second compound 10 µM): 216 nM
viability, T/C [1]: 84.4%
viability, T/C [2]: 93.7%
viability, T/C [3]: 30.8%
viability, T/C [4]: 19.2%
viability, T/C [5]: 5.61%
viability, T/C [6]: 7.78%
viability, T/C [7]: 75.3%
viability, T/C [8]: 98.3%
viability, T/C [9]: 33.4%
viability, T/C [10]: 20.2%
viability, T/C [11]: 4.7%
viability, T/C [12]: 4.37%
viability, T/C [13]: 67.5%
viability, T/C [14]: 93.3%
viability, T/C [15]: 25.9%
viability, T/C [16]: 20.4%
viability, T/C [17]: 6.24%
viability, T/C [18]: 5.64%
viability, T/C [19]: 66.8%
viability, T/C [20]: 103%
viability, T/C [21]: 36%
viability, T/C [22]: 23.7%
viability, T/C [23]: 6.64%
viability, T/C [24]: 5.44%
viability, T/C [25]: 52.7%
viability, T/C [26]: 113%
viability, T/C [27]: 32.1%
viability, T/C [28]: 22.1%
viability, T/C [29]: 6.52%
viability, T/C [30]: 3.3%
viability, T/C [31]: 61.5%
viability, T/C [32]: 122%
viability, T/C [33]: 29%
viability, T/C [34]: 21.3%
viability, T/C [35]: 5.32%
viability, T/C [36]: 5.87%

CCc1cc2c(N3CCc4c(cc(Cn5ccnc5)cc4-c4cn(C)nc4C(F)(F)F)C3=O)ccnc2c(OC)n1 + Cc1cccc(N(C)C(=O)C2C(O)CCN2c2nc(C)cc(C(F)(F)F)c2C#N)c1
IC50 (second compound 0.0316 µM): > 10000 nM
IC50 (second compound 0.1 µM): > 10000 nM
IC50 (second compound 0.316 µM): > 10000 nM
IC50 (second compound 1 µM): > 10000 nM
IC50 (second compound 3.16 µM): > 10000 nM
IC50 (second compound 10 µM): > 10000 nM
viability, T/C [1]: 69.1%
viability, T/C [2]: 66.5%
viability, T/C [3]: 68.8%
viability, T/C [4]: 58.4%
viability, T/C [5]: 69.4%
viability, T/C [6]: 55.3%
viability, T/C [7]: 74.5%
viability, T/C [8]: 75%
viability, T/C [9]: 63.2%
viability, T/C [10]: 54.5%
viability, T/C [11]: 60.6%
viability, T/C [12]: 55.8%
viability, T/C [13]: 61.5%
viability, T/C [14]: 87.3%
viability, T/C [15]: 64.2%
viability, T/C [16]: 59.7%
viability, T/C [17]: 69.5%
viability, T/C [18]: 64.1%
viability, T/C [19]: 98.3%
viability, T/C [20]: 54.9%
viability, T/C [21]: 58.3%
viability, T/C [22]: 67.8%
viability, T/C [23]: 65.8%
viability, T/C [24]: 57.6%
viability, T/C [25]: 78.3%
viability, T/C [26]: 68.3%
viability, T/C [27]: 67.9%
viability, T/C [28]: 79%
viability, T/C [29]: 71.8%
viability, T/C [30]: 57.8%
viability, T/C [31]: 95.5%
viability, T/C [32]: 62.8%
viability, T/C [33]: 81.6%
viability, T/C [34]: 65.8%
viability, T/C [35]: 61.2%
viability, T/C [36]: 51.9%
